Experimental data: PubChem BioAssay (NCI)
Where “and” joins values, the source holds several entries; their conditions need not be identical. Equal values may be shown once.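 Each compound was tested at five concentrations against cells in 96-well plates for 48 hours. GI50 marks 50% less growth. TGI denotes the concentration required for complete inhibition of growth.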

Assays:
Experiment in all cases: DTP human tumour cell line panel, 48 h
[1] = system: 786-0 renal
[2] = system: A498 renal
[3] = system: A549 NSCLC
[4] = system: ACHN renal
[5] = system: BT-549 breast
[6] = system: CAKI-1 renal
[7] = system: CCRF-CEM leukemia
[8] = system: COLO 205 colon
[9] = system: DU-145 prostate
[10] = system: EKVX NSCLC
[11] = system: HCC-2998 colon
[12] = system: HCT-116 colon
[13] = system: HCT-15 colon
[14] = system: HL-60(TB) leukemia
[15] = system: HOP-62 NSCLC
[16] = system: HS 578T breast
[17] = system: HT29 colon
[18] = system: IGROV1 ovarian
[19] = system: K-562 leukemia
[20] = system: KM12 colon
[21] = system: LOX IMVI melanoma
[22] = system: M14 melanoma
[23] = system: MALME-3M melanoma
[24] = system: MCF7 breast
[25] = system: MDA-MB-231 breast
[26] = system: MDA-MB-435
[27] = system: MDA-N
[28] = system: MOLT-4 leukemia
[29] = system: NCI-H23 lung
[30] = system: NCI-H460 lung
[31] = system: NCI-H522 lung
[32] = system: NCI/ADR-RES ovarian
[33] = system: OVCAR-3 ovarian
[34] = system: OVCAR-4 ovarian
[35] = system: OVCAR-5 ovarian
[36] = system: OVCAR-8 ovarian
[37] = system: PC-3 prostate
[38] = system: RPMI-8226 leukemia
[39] = system: RXF 393 renal
[40] = system: SF-268 CNS
[41] = system: SF-295 CNS
[42] = system: SF-539 CNS
[43] = system: SK-MEL-2 melanoma
[44] = system: SK-MEL-28 melanoma
[45] = system: SK-MEL-5 melanoma
[46] = system: SK-OV-3 ovarian
[47] = system: SN12C renal
[48] = system: SNB-19 CNS
[49] = system: SR leukemia
[50] = system: SW-620 colon
[51] = system: T-47D breast
[52] = system: TK-10 renal
[53] = system: U251 CNS
[54] = system: UACC-257 melanoma
[55] = system: UACC-62 melanoma
[56] = system: UO-31 renal
[57] = system: HOP-92 NSCLC
[58] = system: NCI-H226 lung
[59] = system: SNB-75 CNS

## O=C(O)/C=c1/c2ccccc2n2nc3ccccc3c12
[1]
  TGI: > 100 µM
[2]
  TGI: 46 µM
[3]
  TGI: > 100 µM
[4]
  TGI: 66.1 µM
[5]
  TGI: > 100 µM
[6]
  TGI: > 100 µM
[7]
  TGI: 99.6 µM
[8]
  TGI: 33.5 µM
[9]
  TGI: > 100 µM
[10]
  TGI: > 100 µM
[11]
  TGI: 84.9 µM
[12]
  TGI: 90.7 µM
[13]
  TGI: > 100 µM
[14]
  TGI: 67.1 µM
[15]
  TGI: > 100 µM
[16]
  TGI: 78.8 µM
[17]
  TGI: > 100 µM
[18]
  TGI: > 100 µM
[19]
  TGI: > 100 µM
[20]
  TGI: 80.7 µM
[21]
  TGI: 78 µM
[22]
  TGI: > 100 µM
[23]
  TGI: 96.2 µM
[24]
  TGI: > 100 µM
[25]
  TGI: > 100 µM
[26]
  TGI: > 100 µM
[27]
  TGI: > 100 µM
[28]
  TGI: 69.6 µM
[29]
  TGI: > 100 µM
[30]
  TGI: > 100 µM
[31]
  TGI: 60 µM
[32]
  TGI: 81 µM
[33]
  TGI: > 100 µM
[34]
  TGI: 70.1 µM
[35]
  TGI: > 100 µM
[36]
  TGI: 60.8 µM
[37]
  TGI: > 100 µM
[38]
  TGI: 70.1 µM
[39]
  TGI: > 100 µM
[40]
  TGI: > 100 µM
[41]
  TGI: > 100 µM
[42]
  TGI: 73.5 µM
[43]
  TGI: > 100 µM
[44]
  TGI: > 100 µM
[45]
  TGI: 30.4 µM
[46]
  TGI: 65.7 µM
[47]
  TGI: 88.8 µM
[48]
  TGI: 87.3 µM
[49]
  TGI: 49.2 µM
[50]
  TGI: > 100 µM
[51]
  TGI: > 100 µM
[52]
  TGI: > 100 µM
[53]
  TGI: > 100 µM
[54]
  TGI: 70 µM
[55]
  TGI: 43.5 µM
[56]
  TGI: > 100 µM

## CN(C)CCOC1(Cc2ccc(F)cc2)CCC(C(C)(C)C)CC1 (configuration not stated)
[1]
  TGI: 15.9 µM and 11.7 µM
[2]
  TGI: 26 µM and 29.3 µM
[3]
  TGI: 22 µM and 25.3 µM
[4]
  TGI: 23.5 µM and 25.7 µM
[5]
  GI50: 3.29 µM and 8.02 µM
  TGI: 13.3 µM and 20.9 µM
[6]
  TGI: 19.4 µM and 21 µM
[7]
  TGI: 9.82 µM and 12.9 µM
[8]
  TGI: 4.7 µM and 5.66 µM
[9]
  TGI: 21.4 µM and 22.3 µM
[10]
  TGI: 27.4 µM and 32.5 µM
[11]
  TGI: 12.3 µM and 12.7 µM
[12]
  TGI: 15.6 µM and 15.9 µM
[13]
  TGI: 21.9 µM and 19.7 µM
[14]
  TGI: 13.1 µM
[15]
  TGI: 19.3 µM and 18.8 µM
[57]
  TGI: 25.3 µM
[16]
  TGI: 32.3 µM and 28 µM
[17]
  TGI: 9.5 µM and 8.3 µM
[18]
  TGI: 23.8 µM and 24.3 µM
[19]
  TGI: 5.05 µM and 7.04 µM
[20]
  TGI: 19.3 µM and 18.1 µM
[21]
  TGI: 7.05 µM and 10.5 µM
[22]
  TGI: 3.27 µM and 3.93 µM
[23]
  TGI: 7.95 µM and 10.6 µM
[24]
  TGI: 14.3 µM and 18.3 µM
[25]
  TGI: 23.8 µM and 22.9 µM
[26]
  TGI: 15 µM and 12.3 µM
[27]
  TGI: 17.3 µM and 10.5 µM
[28]
  TGI: 8.88 µM and 12.3 µM
[58]
  TGI: 27.5 µM and 26.8 µM
[29]
  TGI: 27.5 µM and 24.8 µM
[30]
  TGI: 11.1 µM and 7.09 µM
[31]
  TGI: 14.2 µM and 23.5 µM
[32]
  TGI: 24.2 µM and 27.7 µM
[33]
  TGI: 23.2 µM and 28.1 µM
[34]
  GI50: 4.33 µM and 9.3 µM
  TGI: 15 µM and 22.5 µM
[35]
  TGI: 21 µM and 20.5 µM
[36]
  TGI: 25.1 µM and 26.9 µM
[37]
  TGI: 17.4 µM and 19 µM
[38]
  TGI: 5.09 µM and 7.79 µM
[39]
  TGI: 8.04 µM
[40]
  TGI: 27.2 µM and 28 µM
[41]
  TGI: 11.9 µM and 13.1 µM
[42]
  GI50: 5.73 µM and 13.4 µM
  TGI: 19.1 µM and 27.1 µM
[43]
  GI50: 10.8 µM and 2.78 µM
  TGI: 24.4 µM and 8.73 µM
[44]
  TGI: 14.7 µM and 12 µM
[45]
  TGI: 3.42 µM and 5.03 µM
[46]
  TGI: 27.7 µM and 28.7 µM
[47]
  TGI: 25 µM and 27.5 µM
[48]
  TGI: 24.6 µM and 19.4 µM
[59]
  GI50: 4.03 µM and 8.49 µM
  TGI: 17.2 µM and 16.5 µM
[49]
  TGI: 8.37 µM and 6.34 µM
[50]
  TGI: 16.6 µM and 20.7 µM
[51]
  TGI: 17.1 µM and 13.7 µM
[52]
  TGI: 20.5 µM and 24.7 µM
[53]
  TGI: 17.3 µM and 19.2 µM
[54]
  TGI: 13.4 µM and 12.1 µM
[55]
  TGI: 15.8 µM and 17 µM
[56]
  TGI: 19.2 µM and 18.2 µM

## COc1ccc(NS(=O)(=O)c2ccc(NC(NC(=O)CC(C)C)(C(F)(F)F)C(F)(F)F)cc2)nn1
[1]
  TGI: > 100 µM
[2]
  TGI: > 100 µM
[3]
  TGI: > 100 µM
[4]
  TGI: > 100 µM
[5]
  TGI: > 100 µM
[6]
  TGI: > 100 µM
[7]
  TGI: > 100 µM
[8]
  TGI: > 100 µM
[9]
  TGI: > 100 µM
[10]
  TGI: > 100 µM
[11]
  TGI: > 100 µM
[12]
  TGI: > 100 µM
[13]
  TGI: > 100 µM
[14]
  TGI: > 100 µM
[15]
  TGI: > 100 µM
[57]
  TGI: > 100 µM
[16]
  TGI: > 100 µM
[17]
  TGI: > 100 µM
[18]
  TGI: > 100 µM
[19]
  TGI: > 100 µM
[20]
  TGI: > 100 µM
[21]
  TGI: > 100 µM
[22]
  TGI: > 100 µM
[23]
  TGI: > 100 µM
[24]
  TGI: > 100 µM
[25]
  TGI: > 100 µM
[26]
  TGI: > 100 µM
[27]
  TGI: > 100 µM
[28]
  TGI: > 100 µM
[58]
  TGI: > 100 µM
[29]
  TGI: > 100 µM
[30]
  TGI: > 100 µM
[31]
  TGI: > 100 µM
[32]
  TGI: > 100 µM
[33]
  TGI: > 100 µM
[34]
  TGI: > 100 µM
[35]
  TGI: > 100 µM
[36]
  TGI: > 100 µM
[37]
  TGI: > 100 µM
[38]
  TGI: > 100 µM
[39]
  TGI: > 100 µM
[40]
  TGI: > 100 µM
[41]
  TGI: > 100 µM
[42]
  TGI: > 100 µM
[43]
  TGI: > 100 µM
[44]
  TGI: > 100 µM
[45]
  TGI: > 100 µM
[46]
  TGI: > 100 µM
[47]
  TGI: > 100 µM
[48]
  TGI: > 100 µM
[59]
  TGI: > 100 µM
[49]
  TGI: > 100 µM
[50]
  TGI: > 100 µM
[51]
  TGI: > 100 µM
[52]
  TGI: > 100 µM
[53]
  TGI: > 100 µM
[54]
  TGI: > 100 µM
[55]
  TGI: > 100 µM
[56]
  TGI: > 100 µM

## CCOC(=O)NC(Nc1cccc(C(F)(F)F)c1)(C(F)(F)F)C(F)(F)F
[1]
  TGI: > 100 µM
[2]
  TGI: > 100 µM
[3]
  TGI: > 100 µM
[4]
  TGI: > 100 µM
[5]
  TGI: > 100 µM
[6]
  TGI: > 100 µM
[7]
  TGI: > 100 µM
[8]
  TGI: > 100 µM
[9]
  TGI: > 100 µM
[10]
  TGI: > 100 µM
[11]
  TGI: > 100 µM
[12]
  TGI: > 100 µM
[13]
  TGI: > 100 µM
[14]
  TGI: > 100 µM
[15]
  TGI: > 100 µM
[57]
  TGI: > 100 µM
[16]
  TGI: > 100 µM
[17]
  TGI: > 100 µM
[18]
  TGI: > 100 µM
[19]
  TGI: > 100 µM
[20]
  TGI: > 100 µM
[21]
  TGI: > 100 µM
[22]
  TGI: > 100 µM
[23]
  TGI: > 100 µM
[24]
  TGI: > 100 µM
[25]
  TGI: > 100 µM
[26]
  TGI: > 100 µM
[27]
  TGI: > 100 µM
[28]
  TGI: > 100 µM
[58]
  TGI: > 100 µM
[29]
  TGI: > 100 µM
[30]
  TGI: > 100 µM
[31]
  TGI: > 100 µM
[32]
  TGI: > 100 µM
[33]
  TGI: > 100 µM
[35]
  TGI: > 100 µM
[36]
  TGI: > 100 µM
[37]
  TGI: > 100 µM
[38]
  TGI: > 100 µM
[39]
  TGI: > 100 µM
[40]
  TGI: > 100 µM
[41]
  TGI: > 100 µM
[42]
  TGI: > 100 µM
[43]
  TGI: > 100 µM
[44]
  TGI: > 100 µM
[45]
  TGI: > 100 µM
[46]
  TGI: > 100 µM
[47]
  TGI: > 100 µM
[48]
  TGI: > 100 µM
[59]
  TGI: > 100 µM
[49]
  TGI: > 100 µM
[50]
  TGI: > 100 µM
[51]
  TGI: > 100 µM
[52]
  TGI: > 100 µM
[53]
  TGI: > 100 µM
[54]
  TGI: > 100 µM
[55]
  TGI: > 100 µM
[56]
  TGI: > 100 µM
